# Measurements from ChEMBL document CHEMBL4715821, “Discovery of 4-ethoxy-7H-pyrrolo[2,3-d]pyrimidin-2-amines as potent, selective and orally bioavailable LRRK2 inhibitors” (Bioorg Med Chem Lett, 2018).
# Tests used:
# [1] = In vivo inhibition of LRRK2 in Han-Wistar rat assessed as reduction in Ser935 phosphorylation in brain at 100 mg/kg, po by Western blot analysis; type: functional; parameters: scale not given: the % may be the effect or the level left
# [2] = In vivo inhibition of LRRK2 in Han-Wistar rat assessed as reduction in Ser935 phosphorylation in kidney at 10 to 100 mg/kg, po by Western blot analysis; type: functional; parameters: scale not given: the % may be the effect or the level left; settings: dose 10-100 mg/kg
# [3] = biological target: Activin receptor type-1 (Homo sapiens) (UniProt Q04771); experiment: Inhibition of human wild type partial length ACVR1 (C188 to C509 residues) expressed in bacterial expression system assessed as residual activity at 1 uM by Kinomescan method relative to control
# [4] = biological target: Tyrosine-protein kinase BTK (Homo sapiens) (UniProt Q06187); experiment: Inhibition of wild-type human full length BTK (M1 to S659 residues) expressed in mammalian expression system assessed as residual activity at 1 uM by Kinomescan method relative to control
# [5] = biological target: Calcium/calmodulin-dependent protein kinase type II subunit alpha (Homo sapiens) (UniProt Q9UQM7); experiment: Inhibition of wild-type human partial length CAMK2A (M1 to K328 residues) expressed in bacterial expression system assessed as residual activity at 1 uM by Kinomescan method relative to control
# [6] = biological target: Cyclin-dependent kinase 1/cyclin B1 (Homo sapiens) (UniProt P06493+P14635); experiment: Inhibition of wild-type human full length CDK1 (M1 to M297 residues)/Cyclin B expressed in mammalian expression system assessed as residual activity at 1 uM by Kinomescan method relative to control
# [7] = biological target: Cyclin-dependent kinase 4/cyclin D1 (Homo sapiens) (UniProt P11802+P24385); experiment: Inhibition of wild-type human full length CDK4/cyclinD1 (M1 to E303 residues) expressed in mammalian expression system assessed as residual activity at 1 uM by Kinomescan method relative to control
# [8] = biological target: Ephrin type-A receptor 8 (Homo sapiens) (UniProt P29322); experiment: Inhibition of human wild type partial length EPHA8 (Q608 to C920 residues) expressed in bacterial expression system assessed as residual activity at 1 uM by Kinomescan method relative to control
# [9] = biological target: Tyrosine-protein kinase Fes/Fps (Homo sapiens) (UniProt P07332); experiment: Inhibition of wild-type human partial length FES (I527 to R822 residues) expressed in bacterial expression system assessed as residual activity at 1 uM by Kinomescan method relative to control
# [10] = biological target: Receptor-type tyrosine-protein kinase FLT3 (Homo sapiens) (UniProt P36888); experiment: Inhibition of wild-type human partial length FLT3 (V592 to Y969 residues) expressed in bacterial expression system assessed as residual activity at 1 uM by Kinomescan method relative to control
# [11] = biological target: Tyrosine-protein kinase HCK (Homo sapiens) (UniProt P08631); experiment: Inhibition of wild-type human full length HCK (M22 to P526 residues) expressed in bacterial expression system assessed as residual activity at 1 uM by Kinomescan method relative to control
# [12] = biological target: MAP kinase-interacting serine/threonine-protein kinase 1 (Homo sapiens) (UniProt Q9BUB5); experiment: Inhibition of MNK1 (unknown origin) assessed as residual activity at 1 uM by Kinomescan method relative to control
# [13] = biological target: Serine/threonine-protein kinase 26 (Homo sapiens) (UniProt Q9P289); experiment: Inhibition of wild-type human full length MST4 (M1 to P416 residues) expressed in mammalian expression system assessed as residual activity at 1 uM by Kinomescan method relative to control
# [14] = biological target: Serine/threonine-protein kinase Nek1 (Homo sapiens) (UniProt Q96PY6); experiment: Inhibition of wild-type human partial length NEK1 (M1 to K278 residues) expressed in bacterial expression system assessed as residual activity at 1 uM by Kinomescan method relative to control
# [15] = biological target: Serine/threonine-protein kinase Nek7 (Homo sapiens) (UniProt Q8TDX7); experiment: Inhibition of wild-type human full length NEK7 (M1 to S302 residues) expressed in bacterial expression system assessed as residual activity at 1 uM by Kinomescan method relative to control
# [16] = biological target: Mitogen-activated protein kinase 13 (Homo sapiens) (UniProt O15264); experiment: Inhibition of wild-type human full length p38-delta (M1 to L365 residues) expressed in bacterial expression system assessed as residual activity at 1 uM by Kinomescan method relative to control
# [17] = biological target: Ribosomal protein S6 kinase beta-2 (Homo sapiens) (UniProt Q9UBS0); experiment: Inhibition of RPS6KB2 (unknown origin) assessed as residual activity at 1 uM by Kinomescan method relative to control
# [18] = biological target: Protein kinase C alpha type (Homo sapiens) (UniProt P17252); experiment: Inhibition of PKCalpha (unknown origin) assessed as residual activity at 1 uM by Kinomescan method relative to control
# [19] = biological target: Serine/threonine-protein kinase D1 (Homo sapiens) (UniProt Q15139); experiment: Inhibition of wild-type human partial length PRKD1 (G551 to E870 residues) expressed in bacterial expression system assessed as residual activity at 1 uM by Kinomescan method relative to control
# [20] = biological target: Ribosomal protein S6 kinase alpha-2 (Homo sapiens) (UniProt Q15349); experiment: Inhibition of human RSK3 expressed in bacterial expression system assessed as residual activity at 1 uM by Kinomescan method relative to control
# [21] = biological target: Serine/threonine-protein kinase 25 (Homo sapiens) (UniProt O00506); experiment: Inhibition of wild-type human partial length YSK1 (V14 to H295 residues) expressed in bacterial expression system assessed as residual activity at 1 uM by Kinomescan method relative to control
# [22] = biological target: NT-3 growth factor receptor (Homo sapiens) (UniProt Q16288); experiment: Inhibition of wild-type human partial length TRKC (Q531 to G825 residues) expressed in mammalian expression system assessed as residual activity at 1 uM by Kinomescan method relative to control
# [23] = biological target: Epithelial discoidin domain-containing receptor 1 (Homo sapiens) (UniProt Q08345); experiment: Inhibition of wild-type human partial length DDR1 (R565 to V876 residues) expressed in bacterial expression system assessed as residual activity at 1 uM by Kinomescan method relative to control
# [24] = biological target: Rhodopsin kinase GRK1 (Homo sapiens) (UniProt Q15835); experiment: Inhibition of wild-type human full length GRK1 (M1 to S563 residues) expressed in mammalian expression system assessed as residual activity at 1 uM by Kinomescan method relative to control
# [25] = biological target: Serine/threonine-protein kinase LATS2 (Homo sapiens) (UniProt Q9NRM7); experiment: Inhibition of wild-type human partial length LATS2 (Q641 to V1088 residues) expressed in mammalian expression system assessed as residual activity at 1 uM by Kinomescan method relative to control
# [26] = biological target: Serine/threonine-protein kinase PLK4 (Homo sapiens) (UniProt O00444); experiment: Inhibition of wild-type human partial length PLK4 (M1 to S273 residues) expressed in mammalian expression system assessed as residual activity at 1 uM by Kinomescan method relative to control
# [27] = biological target: Serine/threonine-protein kinase SIK3 (Homo sapiens) (UniProt Q9Y2K2); experiment: Inhibition of SIK3 (unknown origin) assessed as residual activity at 1 uM by Kinomescan method relative to control
smiles,measurement,setting,value
CCOc1nc(Nc2ccc(C(=O)N3CCOCC3)cc2OC)nc2[nH]ccc12,Activity,[1],75%
same,Activity,[2],100%
same,Activity,[3],108%
same,Activity,[4],101%
same,Activity,[5],214%
same,Activity,[6],92.2%
same,Activity,[7],97.4%
same,Activity,[8],94.4%
same,Activity,[9],43.2%
same,Activity,[10],92.6%
same,Activity,[11],87.2%
same,Activity,[12],98.7%
same,Activity,[13],88.4%
same,Activity,[14],90.8%
same,Activity,[15],97.7%
same,Activity,[16],109%
same,Activity,[17],98.9%
same,Activity,[18],95.5%
same,Activity,[19],46.9%
same,Activity,[20],80.3%
same,Activity,[21],95.4%
same,Activity,[22],97.7%
same,Activity,[23],102%
same,Activity,[24],95.2%
same,Activity,[25],96.3%
same,Activity,[26],58.8%
same,Activity,[27],106%
